“Also recorded” adds a separate entry of the source.
Each molecule was assayed on full-thickness excision wounds on the dorsum of Yucatan minipigs (assay: Yucatan minipig full-thickness excision wound model, histologic evaluation (H&E, Mason's Trichrome)). Settings: minipig wound sites after two doses; Day 59 post wound; average of individual scores, scale 1 minimal to 5 severe.
Type: in vivo
From the text: Porcine skin resembles human skin in many aspects. Both species have a relatively thick epidermis, distinct rete pegs, dermal papillae, and dense elastic fibers in the dermis. Furthermore, unlike rodents and rabbits, porcine skin is adherent to the subcutaneous structures, similar to human skin. Because of these anatomical similarities and other parallelisms in wound healing, porcine models have emerged as important foundations for the study of pathophysiology and potential treatment paradigms for abnormal wound healing. It has also been observed in porcine full-thickness wound healing in Yucatan Minipigs that the spatial and temporal expressions of TGF-β1, PDGF and VEGF were similar to the patterns for the growth factors described above. Therefore, the full-thickness excision models in Yucatan minipigs are the models for human wound healing studies.
(§1) In this experiment, multiple full-thickness excision wounds were made to the dorsum of Yucatan minipigs, and the wound sites were allowed to re-epithelialized adequately. At four weeks post-wound, the wound sites had normal to pink vascularity and had pliability. Epidermal hyperplasia was observed, as expected for regenerative responses in the full-thickness wounds.
(§2) On Day 28 post-wound, a dose (e.g., 1%) of axitinib, nintedanib, riociguat, sorafenib, sunitinib, and/or lenvatinib was administered into the dermal tissue at or around the wound sites, once every two weeks on two occasions. One wound site was left untreated as the control for each pig. Please note that the particular parameters in this example are only for illustration. One skilled in the art would appreciate that the dosages, administration methods, treatment regimen, and the administration sites may be varied to achieve similar results.
On Day 59 post wound, the minipigs were sacrificed and dermal tissues were collected for qualitative and quantitative evaluation using hematoxylin and eosin, and Mason's Trichrome staining. Dermal fibroplasia was characterized by increased numbers of fibroblasts in the dermis suspended in variable amounts of collagen in wounds.
For CNC(=O)c1ccccc1Sc1ccc2c(/C=C/c3ccccn3)n[nH]c2c1 [axitinib], the “Fibroplasia; dermis, Average Scores” value was “(2.33)” and the “Neovascularization; dermis, Average Scores” value (“Neovascularization; dermis” below) was “(1.67)”. For COc1cc2nccc(Oc3ccc(NC(=O)NC4CC4)c(Cl)c3)c2cc1C(N)=O [lenvatinib], the “Fibroplasia; dermis, Average Scores” value was “(3.00)” and the “Neovascularization; dermis” value was “(2.33)”. For COC(=O)c1ccc2c(c1)NC(=O)/C2=C(\Nc1ccc(N(C)C(=O)CN2CCN(C)CC2)cc1)c1ccccc1 [nintedanib], the “Fibroplasia; dermis, Average Scores” value was “(2.33)” and the “Neovascularization; dermis” value was “(1.67)”. COC(=O)N(C)c1c(N)nc(-c2nn(Cc3ccccc3F)c3ncccc23)nc1N [riociguat] was tested, and the “Fibroplasia; dermis, Average Scores” value was “(2.67)” and the “Neovascularization; dermis” value was “(2.67)”. In the case of CNC(=O)c1cc(Oc2ccc(NC(=O)Nc3ccc(Cl)c(C(F)(F)F)c3)cc2)ccn1 [sorafenib], the “Fibroplasia; dermis, Average Scores” value is reported as “(3.00)” and the “Neovascularization; dermis” value is reported as “(2.33)”. For CCN(CC)CCNC(=O)c1c(C)[nH]c(/C=C2\C(=O)Nc3ccc(F)cc32)c1C [sunitinib], the “Fibroplasia; dermis, Average Scores” value was “(2.67)” and the “Neovascularization; dermis” value was “(2.33)”.

Same assay, conditions: minipig; two biweekly treatments; histopathology relative to the untreated wound
With COC(=O)c1ccc2c(c1)NC(=O)/C2=C(\Nc1ccc(N(C)C(=O)CN2CCN(C)CC2)cc1)c1ccccc1 [nintedanib] the “dermal fibroplasia / fibrosis at treated wound, in words” value was “reduced” and the “neovascularization at treated wound, in words” value was “noticeably reduced”.

What follows are molecules tested on TGF-β1 mRNA (assay: TGF-β1 mRNA expression by qRT-PCR in Yucatan pig skin wound sites). Settings: minipig; compared to unwounded normal skin.
Type: in vivo, Yucatan minipigs
From the text: as §1, §2
In addition, total mRNA was isolated from skin biopsies of the treated wound sites and the untreated unwounded sites of the pigs. The mRNA samples were used to prepare cDNA and analyzed via qRT-PCR. The TGF-β1 expression levels were assessed using beta actin as a reference gene.
COC(=O)c1ccc2c(c1)NC(=O)/C2=C(\Nc1ccc(N(C)C(=O)CN2CCN(C)CC2)cc1)c1ccccc1 [nintedanib] was tested, and the “TGF-β1 mRNA expression level at treated wounds, in words” value (shortened to “TGF-β1 mRNA expression level”) was “most effective”. In the case of COC(=O)N(C)c1c(N)nc(-c2nn(Cc3ccccc3F)c3ncccc23)nc1N [riociguat], the “TGF-β1 mRNA expression level” value is reported as “most effective”. With CNC(=O)c1cc(Oc2ccc(NC(=O)Nc3ccc(Cl)c(C(F)(F)F)c3)cc2)ccn1 [sorafenib] the “TGF-β1 mRNA expression level” value was “most effective”.

Each molecule was assayed on rabbit ear hypertrophic scar (assay: Rabbit ear hypertrophic scar model, histologic evaluation (H&E, Mason's Trichrome)). Settings: intradermal, Day 42 post wound, compared with untreated and vehicle-treated wound.
Type: in vivo, New Zealand White rabbits
From the text: In rabbits, wounds are created down to the bare cartilage on the ventral surface of the ear using a dermal biopsy punch. […] By both appearance and histological analysis, these scars resemble human hypertrophic scars. In this established model, it was shown that reduced TGF-β expression results in reduced scarring, which is consistent with the current understanding of the pathogenesis of excessive scarring/dermal fibrosis. […] Thus, this rabbit model was also used to assess the compounds of the invention.
(§3) Eight wounds were created on the ventral surface of the ears of each of New Zealand White rabbits using skin punch biopsies, and then the wounds were allowed to heal for approximately 2 weeks.
(§4) A dose (e.g., 1%) of axitinib, nintedanib, riociguat, sorafenib, sunitinib, and/or lenvatinib was administered into the dermal tissue, once every two weeks on two occasions. Again, the specific doses, treatment methods and schedules are for illustration only. One skilled in the art would appreciate that variations and modifications are possible to achieve similar results.
(§5) On Day 42 post wound, the rabbits were sacrificed and dermal tissues were collected for qualitative and quantitative evaluation using hematoxylin and eosin and Mason's Trichrome staining. In addition, TGF-β1 mRNA expression levels were measured using qRT-PCR.
Histologic slides for hematoxylin and eosin stainings were prepared from the wound sites. Tissues were evaluated qualitatively for inflammation, neovascularization, granulation tissue, degrees of re-epithelialization, and degrees of scarring (avascular collagen).
In the case of COc1cc2nccc(Oc3ccc(NC(=O)NC4CC4)c(Cl)c3)c2cc1C(N)=O [lenvatinib], the “re-epithelialization of treated wound, in words” value is reported as “similar”. With COC(=O)c1ccc2c(c1)NC(=O)/C2=C(\Nc1ccc(N(C)C(=O)CN2CCN(C)CC2)cc1)c1ccccc1 [nintedanib] the “scar tissues of treated wound, in words” value was “less”.

Same assay, conditions: intradermal, once every two weeks on two occasions, Day 42 post wound, compared with untreated and vehicle-treated wound
With COc1cc2nccc(Oc3ccc(NC(=O)NC4CC4)c(Cl)c3)c2cc1C(N)=O [lenvatinib] the “fibrosis of treated wound, in words” value was “similar” and the “neovascularization of treated wound, in words” value was “similar”. In the case of COC(=O)c1ccc2c(c1)NC(=O)/C2=C(\Nc1ccc(N(C)C(=O)CN2CCN(C)CC2)cc1)c1ccccc1 [nintedanib], the “fibrosis of treated wound, in words” value is reported as “decreased” and the “neovascularization of treated wound, in words” value is reported as “decreased; also recorded: much less”. In the case of COC(=O)N(C)c1c(N)nc(-c2nn(Cc3ccccc3F)c3ncccc23)nc1N [riociguat], the “fibrosis of treated wound, in words” value is reported as “slightly decreased” and the “neovascularization of treated wound, in words” value is reported as “slightly decreased”. With CNC(=O)c1cc(Oc2ccc(NC(=O)Nc3ccc(Cl)c(C(F)(F)F)c3)cc2)ccn1 [sorafenib] the “neovascularization of treated wound, in words” value was “slightly increased”.

What follows are molecules tested on TGF-β1 mRNA (assay: TGF-β1 mRNA expression by qRT-PCR in rabbit ear wound sites). Settings: rabbit ear wound sites, Treated (each drug), N 5 or 6, intradermal.
Type: in vivo, New Zealand White rabbits
Method: as §3, §4, §5
For CNC(=O)c1ccccc1Sc1ccc2c(/C=C/c3ccccn3)n[nH]c2c1 [axitinib], the “Rabbit TGFB1 mRNA Expression Fold by Treatment Relative to Untreated Wounded (mean ± SD)” value was 0.87 ± 0.28 Fold. With COc1cc2nccc(Oc3ccc(NC(=O)NC4CC4)c(Cl)c3)c2cc1C(N)=O [lenvatinib] the “Rabbit TGFB1 mRNA Expression Fold by Treatment Relative to Untreated Wounded (mean ± SD)” value was 0.66 ± 0.25 Fold. With COC(=O)c1ccc2c(c1)NC(=O)/C2=C(\Nc1ccc(N(C)C(=O)CN2CCN(C)CC2)cc1)c1ccccc1 [nintedanib] the “Rabbit TGFB1 mRNA Expression Fold by Treatment Relative to Untreated Wounded (mean ± SD)” value was 0.73 ± 0.13 Fold. For COC(=O)N(C)c1c(N)nc(-c2nn(Cc3ccccc3F)c3ncccc23)nc1N [riociguat], the “Rabbit TGFB1 mRNA Expression Fold by Treatment Relative to Untreated Wounded (mean ± SD)” value was 1.14 ± 0.14 Fold. In the case of CNC(=O)c1cc(Oc2ccc(NC(=O)Nc3ccc(Cl)c(C(F)(F)F)c3)cc2)ccn1 [sorafenib], the “Rabbit TGFB1 mRNA Expression Fold by Treatment Relative to Untreated Wounded (mean ± SD)” value is reported as 0.87 ± 0.13 Fold. In the case of CCN(CC)CCNC(=O)c1c(C)[nH]c(/C=C2\C(=O)Nc3ccc(F)cc32)c1C [sunitinib], the “Rabbit TGFB1 mRNA Expression Fold by Treatment Relative to Untreated Wounded (mean ± SD)” value is reported as 0.76 ± 0.23 Fold.

Same assay, conditions: rabbit ear; compared with the vehicle-treated wound
For COc1cc2nccc(Oc3ccc(NC(=O)NC4CC4)c(Cl)c3)c2cc1C(N)=O [lenvatinib], the “mean TGFb1 mRNA level after intradermal treatment, in words” value (from here on “mean TGFb1 mRNA level”) was “lower”. With COC(=O)c1ccc2c(c1)NC(=O)/C2=C(\Nc1ccc(N(C)C(=O)CN2CCN(C)CC2)cc1)c1ccccc1 [nintedanib] the “mean TGFb1 mRNA level” value was “lower”. In the case of CNC(=O)c1cc(Oc2ccc(NC(=O)Nc3ccc(Cl)c(C(F)(F)F)c3)cc2)ccn1 [sorafenib], the “mean TGFb1 mRNA level” value is reported as “lower”.
